# Experiments:
# barnyardgrass = assay: Test Example 3: paddy pot test, application under submerged conditions; type: in vivo, Echinochloa crus-galli L.; conditions: submerged application at 0.5 leaf stage, visually observed 14 days after application, 0 = non-treated, 100 = complete kill
# Text: (§1) Paddy field soil was put into a 1/1,000,000 ha pot, and seed of barnyardgrass and japanese bulrush were sown and slightly covered with soil. Then, the pot was left to stand still in a greenhouse in a state where the depth of flooding water was from 0.5 to 1 cm, and one day or two days later, tubers of japanese ribbon wapato were planted. Thereafter, the depth of flooding water was maintained at a level of from 3 to 4 cm, and when barnyardgrass and japanese bulrush reached a 0.5 leaf stage and japanese ribbon wapato reached a primary leaf stage, an aqueous diluted solution of a wettable powder or emulsifiable concentrate having the compound of the present invention formulated in accordance with a usual formulation method, was uniformly applied under submerged conditions by a pipette so that the dose of the active ingredient would be at a predetermined level. On the 14 days after the application of the herbicide, the growth of barnyard grass, japanese burlrush and japanese ribbon wapato was visually observed and on the 21st day after the application of the herbicide, the growth of rice was visually observed, and the herbicidal effects were evaluated by the growth-controlling degrees (%) ranging from 0 (equivalent to the non-treated plot) to 100 (complete kill), whereby the results shown in Table 5 were obtained.
# japanese bulrush = assay: as above; type: in vivo, Scirpus juncoides; conditions: submerged application at 0.5 leaf stage, visually observed 14 days after application, 0 = non-treated, 100 = complete kill
# Text: as §1
# japanese ribbon wapato = assay: as above; type: in vivo, Sagittaria pygniaea; conditions: submerged application at primary leaf stage, visually observed 14 days after application, 0 = non-treated, 100 = complete kill
# Text: as §1
# rice (var. Nihonbare) = assay: Test Example 3: paddy pot test, transplanted rice; type: in vivo, Oryza sativa L.; conditions: applied 4th day after transplantation, visually observed 21st day after application, 0 = non-treated, 100 = complete kill
# Text: as §1, with “On the other hand, paddy field soil was put into a 1/1,000,000 ha pot and puddled and leveled, and the depth of flooding water was from 3 to 4 cm. Next day, rice (var. Nihonbare) of 2 leaf stage was transplanted in a depth of 3 cm. On the 4th day after the transplantation, the compound of the present invention was applied in the same manner as described above. On the 14 days” for “On the 14 days”
Structure (SMILES),Growth controlling degree (%) Barnyardgrass (barnyardgrass; active ingredient 250 g/ha),Growth controlling degree (%) Japanese bulrush (japanese bulrush; active ingredient 250 g/ha),Growth controlling degree (%) Japanese ribbon wapato (japanese ribbon wapato; active ingredient 250 g/ha),Growth controlling degree (%) Rice (rice (var. Nihonbare); active ingredient 250 g/ha),Growth controlling degree (%) Barnyardgrass (barnyardgrass; active ingredient 500 g/ha),Growth controlling degree (%) Japanese bulrush (japanese bulrush; active ingredient 500 g/ha),Growth controlling degree (%) Japanese ribbon wapato (japanese ribbon wapato; active ingredient 500 g/ha),Growth controlling degree (%) Rice (rice (var. Nihonbare); active ingredient 500 g/ha)
CC(C)C(c1cnccc1C(F)(F)F)N(C)C(=O)COc1ccccc1Cl (centres unmarked) [I-235],100%,90%,60%,0%,–,–,–,–
CC(Oc1ccc(F)cc1F)C(=O)N(C)C(c1cnccc1C(F)(F)F)C(C)C (mixture of isomers) [I-138],98%,100%,–,10%,–,–,–,–
Cc1cccc(CC(=O)N(C)C(c2cnccc2Cl)C(C)C)c1 (centres unmarked) [I-88],100%,70%,50%,0%,–,–,–,–
CC(C)C(c1cnccc1Cl)N(C)C(=O)Cc1c(F)ccc(F)c1F (centres unmarked) [I-89],100%,95%,40%,0%,–,–,–,–
CC(C)C(c1cnccc1Cl)N(C)C(=O)Cc1ccc2ccccc2c1 (centres unmarked) [I-59],–,–,–,–,90%,10%,60%,10%
CC(C)C(c1cnccc1Br)N(C)C(=O)Cc1ccccc1 (racemic) [I-110],98%,90%,20%,0%,–,–,–,–
CCN(C(=O)N(C)C(c1cnccc1C(F)(F)F)C(C)C)c1ccccc1 (centres unmarked) [I-233],–,–,–,–,95%,90%,40%,10%
CC(C)C(c1cnccc1C(F)(F)F)N(C)C(=O)COc1cc([N+](=O)[O-])c(Cl)cc1Cl (centres unmarked) [I-253],90%,20%,0%,10%,–,–,–,–
Cc1ccccc1OCC(=O)N(C)C(c1cnccc1C(F)(F)F)C(C)C (centres unmarked) [I-240],100%,100%,50%,0%,–,–,–,–
CC(Sc1ccccc1)C(=O)N(C)C(c1cnccc1C(F)(F)F)C(C)C (mixture of isomers) [I-140],98%,98%,–,0%,–,–,–,–
"CC(C)C(c1cnccc1C(F)(F)F)N(C)C(=O)C=COc1ccccc1 (centres unmarked) [I-166, N-methyl-N-[2-methyl-1-(4-trifluoromethylpyridin-3-yl)propyl]3-phenoxypropenamide]",100%,95%,0%,0%,–,–,–,–
CC(C)C(c1ccc(C(F)(F)F)nc1)N(C)C(=O)Cc1ccccc1 (racemic) [I-123],–,–,–,–,70%,10%,–,10%
CC(C)C(c1cnccc1C(F)(F)F)N(C)C(=O)C=C1CCCCC1 (centres unmarked) [I-177],60%,98%,20%,20%,–,–,–,–
Cc1cc(F)ccc1CC(=O)N(C)C(c1cnccc1C(F)(F)F)C(C)C (racemic) [I-116],–,–,–,–,100%,95%,50%,10%
CC(C)C(c1cnccc1C(F)(F)F)N(C)C(=O)C=Cc1ccc2ccccc2c1 (centres unmarked) [I-188],–,–,–,–,100%,0%,0%,0%
CC(C)C(c1cnccc1C(F)(F)F)N(C)C(=O)Cc1ccc(-c2ccccc2)cc1 (centres unmarked) [I-9],–,–,–,–,100%,10%,30%,0%

Structure (SMILES),Growth controlling degree (%) Barnyardgrass (barnyardgrass; active ingredient 250 g/ha),Growth controlling degree (%) Japanese bulrush (japanese bulrush; active ingredient 250 g/ha),Growth controlling degree (%) Japanese ribbon wapato (japanese ribbon wapato; active ingredient 250 g/ha),Growth controlling degree (%) Rice (rice (var. Nihonbare); active ingredient 250 g/ha),Growth controlling degree (%) Barnyardgrass (barnyardgrass; active ingredient 500 g/ha),Growth controlling degree (%) Japanese bulrush (japanese bulrush; active ingredient 500 g/ha),Growth controlling degree (%) Japanese ribbon wapato (japanese ribbon wapato; active ingredient 500 g/ha),Growth controlling degree (%) Rice (rice (var. Nihonbare); active ingredient 500 g/ha)
CC(C)C(c1cnccc1C(F)(F)F)N(C)C(=O)COc1ccc(Cl)cc1Cl (centres unmarked) [I-236],95%,80%,70%,0%,–,–,–,–
CCN(C(=O)Cc1ccccc1)C(c1cnccc1C(F)(F)F)C(C)C (centres unmarked) [I-24],–,–,–,–,–,95%,100%,40%
CC(Sc1ccc(Cl)cc1)C(=O)N(C)C(c1cnccc1C(F)(F)F)C(C)C (mixture of isomers) [I-141],100%,98%,–,20%,–,–,–,–
CC(C)C(c1cnccc1C(F)(F)F)N(C)S(=O)(=O)C=Cc1ccc(Cl)cc1 (centres unmarked) [I-142],100%,60%,–,10%,–,–,–,–
CSc1ccc(CC(=O)N(C)C(c2cnccc2C(F)(F)F)C(C)C)cc1 (centres unmarked) [I-37],100%,50%,10%,0%,–,–,–,–
CC(C)C(c1cnccc1C(F)(F)F)N(C)C(=O)Cc1ccc2ccccc2c1 (centres unmarked) [I-58],–,–,–,–,100%,40%,0%,35%
CC(C)C(c1cnccc1C(F)(F)F)N(C)C(=O)C(F)(F)c1ccccc1 (centres unmarked) [I-143],98%,98%,–,10%,–,–,–,–
Cc1ccc(F)c(CC(=O)N(C)C(c2cnccc2C(F)(F)F)C(C)C)c1 (centres unmarked) [I-108],98%,100%,60%,10%,–,–,–,–
CCCC(=O)NC(c1cnccc1C(F)(F)F)c1cccc2ccccc12 (centres unmarked) [I-49],–,–,–,–,90%,85%,–,10%
CCCC(=O)N(C)C(c1cnccc1C(F)(F)F)c1cccc2ccccc12 (centres unmarked) [I-50],–,–,–,–,95%,95%,–,10%
C=CCCC(=O)N(C)C(c1cnccc1C(F)(F)F)C(C)C (centres unmarked) [I-211],100%,98%,–,50%,–,–,–,–
CC(Oc1ccc(Cl)cc1)C(=O)N(C)C(c1cnccc1C(F)(F)F)C(C)C (mixture of isomers) [I-139],98%,98%,–,10%,–,–,–,–
CC(C)C(c1cnccc1C(F)(F)F)N(C)S(=O)(=O)c1ccc(C(C)(C)C)cc1 (centres unmarked) [I-145],100%,0%,–,20%,–,–,–,–
COc1ccc(S(=O)(=O)N(C)C(c2cnccc2C(F)(F)F)C(C)C)cc1 (centres unmarked) [I-144],100%,98%,–,20%,–,–,–,–
CC(C)C(c1cnccc1C(F)(F)F)N(C)C(=O)OCc1ccccc1 (racemic) [I-111],90%,10%,–,0%,–,–,–,–
